US7368471B2, “Substituted indole acid derivatives as inhibitors of plasminogen activator inhibitor-1 (PAI-1)” (Wyeth, priority 2001, dated 2008)
Read-outs that look alike come from different tables or passages of the source.

Key:
[1] = target: T1, recombinant human plasminogen activator inhibitor-1 (PAI-1) (Homo sapiens, UniProt P05121); assay: Modification of the Primary Screen for the PAI-1 Inhibition (IC50); assay type: biochemical; conditions: footnote b: determined by a modification of the Primary Screen for the PAI-1 Inhibition
T1 construct: purchased Molecular Innovations, Royal Oak, Mich
Experimental: (§1) Primary Screen for the PAI-1 Inhibition
(§2) Test compounds are dissolved in DMSO at a final concentration of 10 mM, then diluted 100× in physiologic buffer. The inhibitory assay is initiated by the addition of the test compound (1-100 μM final concentration, maximum DMSO concentration of 0.2%) in a pH 6.6 buffer containing 140 nM recombinant human plasminogen activator inhibitor-1 (PAI-1; Molecular Innovations, Royal Oak, Mich.). Following a 1 hour incubation at room temperature, 70 nM of recombinant human tissue plasminogen activator (tPA) is added, and the combination of the test compound, PAI-1 and tPA is incubated for an additional 30 minutes. Following the second incubation, Spectrozyme-tPA (American Diagnostica, Greenwich, Conn.), a chromogenic substrate for tPA, is added and absorbance read at 405 nm at 0 and 60 minutes. Relative PAI-1 inhibition is equal to the residual tPA activity in the presence of the test compound and PAI-1. Control treatments include the complete inhibition of tPA by PAI-1 at the molar ratio employed (2:1), and the absence of any effect of the test compound on tPA alone.

human PAI-1 = human PAI-1 (Homo sapiens, UniProt P05121); assay: Antibody Assay for Determining IC50 of Inhibition of PAI-1 (active PAI-1 bound to tPA-coated plate, 33B8 antibody); assay type: binding
Experimental: Assay for Determining IC50 of Inhibition of PAI-1
This assay is based upon the non-SDS dissociable interaction between tPA and active PAI-1. Assay plates are initially coated with human tPA (10 μg/ml). Test compounds are dissolved in DMSO at 10 mM, then diluted with physiologic buffer (pH 7.5) to a final concentration of 1-50 μM. Test compounds are incubated with human PAI-1 (50 ng/ml) for 15 minutes at room temperature. The tPA-coated plate is washed with a solution of 0.05% Tween 20 and 0.1% BSA, then the plate is blocked with a solution of 3% BSA. […] The plate is again washed, and a solution of goat anti-mouse IgG-alkaline phosphatase conjugate is added at a 1:50,000 dilution in goat serum. The plate is incubated 30 minutes at room temperature, washed, and a solution of alkaline phosphatase substrate is added. The plate is incubated 45 minutes at room temperature, and color development is determined at OD405nm. […] Results are analyzed using a logarithmic best-fit equation. The assay sensitivity is 5 ng/ml of human PAI-1 as determined from a standard curve ranging from 0-100 ng/ml.

[2] = target: T1, recombinant human plasminogen activator inhibitor-1 (PAI-1); assay: Primary Screen for the PAI-1 Inhibition (residual tPA activity, Spectrozyme-tPA chromogenic substrate); assay type: biochemical; conditions: 25 μM test compound
Experimental: as §1, §2

[3] = footnote a: determined by the Antibody Assay, read-out: IC50

T1 sequence (P05121 24-402): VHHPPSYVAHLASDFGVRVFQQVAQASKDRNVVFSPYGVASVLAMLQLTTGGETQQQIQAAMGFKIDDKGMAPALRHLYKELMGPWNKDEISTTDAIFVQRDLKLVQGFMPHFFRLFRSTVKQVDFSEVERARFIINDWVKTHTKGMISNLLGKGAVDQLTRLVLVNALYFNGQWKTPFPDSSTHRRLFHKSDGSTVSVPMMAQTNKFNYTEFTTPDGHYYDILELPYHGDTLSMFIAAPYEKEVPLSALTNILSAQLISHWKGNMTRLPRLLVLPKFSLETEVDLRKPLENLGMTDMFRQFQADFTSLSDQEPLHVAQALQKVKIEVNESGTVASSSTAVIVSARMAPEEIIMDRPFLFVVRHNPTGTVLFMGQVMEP
Chain of human PAI-1 (P05121 24-402): as above

| Structure (SMILES) | melting point | IC50 [1] [µM] | IC50 (human PAI-1; [3]) [µM] | IC50 (human PAI-1) [µM] | inhibition at 25 µM [2] [%] |
| --- | --- | --- | --- | --- | --- |
| Cn1cc(C(=O)C(=O)O)c2ccc(-c3ccc(C(F)(F)F)cc3)cc21 [Example 2, {1-Methyl-6-[4-(trifluoromethyl)phenyl]-1H-indol-3-yl}(oxo)acetic acid] | 256 to 257 °C (dec.) | 32 | – | – | – |
| O=C(O)C(=O)c1cn(Cc2ccccc2)c2cc(-c3ccc(OC(F)(F)F)cc3)ccc12 [Example 5, {1-Benzyl-6-[4-(trifluoromethoxy)phenyl]-1H-indol-3-yl}(oxo)acetic acid] | – | – | – | 17.3 | – |
| CC(C)(C)c1ccc(Cn2cc(C(=O)C(=O)O)c3ccc(-c4ccc(OC(F)(F)F)cc4)cc32)cc1 [Example 8, {1-[4-(tert-Butyl)benzyl]-6-[4-(trifluoromethoxy)phenyl]-1H-indol-3-yl}(oxo)acetic acid] | – | 11.2 | – | – | – |
| O=C(O)C(=O)c1cn(Cc2ccccc2)c2ccc(-c3ccc(F)c(Cl)c3)cc12 [Example 15, [1-Benzyl-5-(3-chloro-4-fluorophenyl)-1H-indol-3-yl](oxo)acetic acid] | 145 to 146 °C (dec.) | 6.5 | – | – | – |
| O=C(O)C(=O)c1cn(Cc2ccccc2)c2ccc(-c3cc(C(F)(F)F)cc(C(F)(F)F)c3)cc12 [Example 16, {1-Benzyl-5-[3,5-bis(trifluoromethyl)phenyl]-1H-indol-3-yl}(oxo)acetic acid] | 206 to 207 °C | – | 11.5 | – | – |
| O=C(O)C(=O)c1cn(Cc2ccccc2)c2c(-c3ccc(OC(F)(F)F)cc3)cccc12 [Example 17, {1-Benzyl-7-[4-(trifluoromethoxy)phenyl]-1H-indol-3-yl}(oxo)acetic acid] | – | – | 10 | – | – |
| O=C(O)C(=O)c1cn(Cc2ccccc2)c2c(-c3ccc(F)c(Cl)c3)cccc12 [Example 18, [1-Benzyl-7-(3-chloro-4-fluorophenyl)-1H-indol-3-yl](oxo)acetic acid] | 153 to 156 °C | 19.4 | – | – | – |
| CC(C)(C)c1ccc(Cn2cc(C(=O)C(=O)O)c3cc(-c4ccc(OC(F)(F)F)cc4)ccc32)cc1 [Example 19, {1-(4-tert-Butylbenzyl)-5-[4-(trifluoromethoxy)phenyl]-1H-indol-3-yl}(oxo)acetic acid] | – | 15.8 | – | – | – |
| O=C(O)C(=O)c1cn(Cc2ccccc2)c2ccc(-c3cccc(OC(F)(F)F)c3)cc12 [Example 22, {1-Benzyl-5-[3-(trifluoromethoxy)phenyl]-1H-indol-3-yl}(oxo)acetic acid] | – | – | 9.7 | – | – |
| Cc1ccc(Cn2cc(C(=O)C(=O)O)c3cc(-c4ccccc4)ccc32)cc1 [Example 25, [1-(4-Methylbenzyl)-5-phenyl-1H-indol-3-yl](oxo)acetic acid] | 195 to 196 °C | 14 | – | – | – |
| CCCCn1cc(C(=O)C(=O)O)c2cc(-c3ccc(Cl)cc3)ccc21 [Example 29, [1-Butyl-5-(4-chlorophenyl)-1H-indol-3-yl](oxo)acetic acid] | 136 to 137 °C | – | – | 12.5 | – |
| CCCCn1cc(C(=O)C(=O)O)c2cc(-c3cccc(Cl)c3)ccc21 [Example 30, [1-Butyl-5-(3-chlorophenyl)-1H-indol-3-yl](oxo)acetic acid] | 108 to 109 °C | 16 | – | – | – |
| Cc1cccc(-c2ccc3c(c2)c(C(=O)C(=O)O)cn3Cc2ccc(C(C)(C)C)cc2)c1 [Example 34, [1-(4-tert-Butylbenzyl)-5-(3-methylphenyl)-1H-indol-3-yl](oxo)acetic acid] | – | 6.2 | – | – | – |
| O=C(O)c1cn(Cc2ccccc2)c2ccc(-c3ccc(F)c(Cl)c3)cc12 [Example 62, 1-Benzyl-5-(3-chloro-4-fluoro-phenyl)-1H-indole-3-carboxylic acid] | 189 to 194 °C | – | – | 11.2 | 53 |

Continued, in another order:

| melting point | IC50 [1] [µM] | IC50 (human PAI-1; [3]) [µM] | Structure (SMILES) | IC50 (human PAI-1) [µM] | inhibition at 25 µM [2] [%] |
| --- | --- | --- | --- | --- | --- |
| 186 to 188 °C | – | 19.9 | O=C(O)C(=O)c1cn(Cc2ccccc2)c2cc(-c3cccc(Cl)c3)ccc12 [Example 21, [1-Benzyl-6-(3-chlorophenyl)-1H-indol-3-yl](oxo)acetic acid] | – | – |
| 192 to 193 °C | 6.8 | – | Cc1ccc(Cn2cc(C(=O)C(=O)O)c3cc(-c4ccc(OC(F)(F)F)cc4)ccc32)cc1 [Example 26, {1-(4-Methylbenzyl)-5-[4-(trifluoromethoxy)phenyl]-1H-indol-3-yl}(oxo)acetic acid] | – | – |
| 158 to 159 °C | 5.3 | – | O=C(O)C(=O)c1cn(Cc2ccc(F)cc2)c2ccc(-c3ccc(OC(F)(F)F)cc3)cc12 [Example 27, {1-(4-Fluorobenzyl)-5-[4-(trifluoromethoxy)phenyl]-1H-indol-3-yl}(oxo)acetic acid] | – | – |
| 165 to 166 °C | – | 35 | O=C(O)C(=O)c1cn(Cc2ccc(F)cc2)c2ccc(-c3ccccc3)cc12 [Example 28, [1-(4-Fluorobenzyl)-5-phenyl-1H-indol-3-yl](oxo)acetic acid] | – | – |
| 149 °C | – | 10.5 | CCCCn1cc(C(=O)C(=O)O)c2cc(-c3ccc(C(F)(F)F)cc3)ccc21 [Example 33, {1-Butyl-5-[4-(trifluoromethyl)phenyl]-1H-indol-3-yl}(oxo)acetic acid] | – | – |
| – | 14.6 | – | COc1cccc(-c2ccc3c(c2)c(C(=O)C(=O)O)cn3Cc2ccc(C(C)(C)C)cc2)c1 [Example 35, [1-(4-tert-Butylbenzyl)-5-(3-methoxyphenyl)-1H-indol-3-yl](oxo)acetic acid] | – | – |
| 111 to 112 °C | – | 10 | CC(C)(C)c1ccc(Cn2cc(C(=O)C(=O)O)c3cc(-c4ccc(C(C)(C)C)cc4)ccc32)cc1 [Example 36, [1-(4-tert-Butylbenzyl)-5-(4-tert-butylphenyl)-1H-indol-3-yl](oxo)acetic acid] | – | – |
| 138 to 139 °C | – | 16.4 | CC(C)(C)c1ccc(Cn2cc(C(=O)C(=O)O)c3cc(-c4cccc(Cl)c4)ccc32)cc1 [Example 37, [1-(4-tert-Butylbenzyl)-5-(3-chlorophenyl)-1H-indol-3-yl](oxo)acetic acid] | – | – |
| 97 to 98 °C | – | 21.6 | Cc1ccccc1-c1ccc2c(c1)c(C(=O)C(=O)O)cn2Cc1ccc(C(C)(C)C)cc1 [Example 39, [1-(4-tert-Butylbenzyl)-5-(2-methylphenyl)-1H-indol-3-yl](oxo)acetic acid] | – | – |
| 98 to 99 °C | 8.5 | – | CCC(CC)Cn1cc(C(=O)C(=O)O)c2cc(-c3ccc(OC(F)(F)F)cc3)ccc21 [Example 40, {1-(2-Ethylbutyl)-5-[4-(trifluoromethoxy)phenyl]-1H-indol-3-yl}(oxo)acetic acid] | – | – |
| 248 to 249.5 °C | – | 45.7 | Cc1ccc(Cn2c(CO)c(C(=O)C(=O)[O-])c3cc(-c4ccc(OC(F)(F)F)cc4)ccc32)cc1.[K+] [Example 42, {2-(Hydroxymethyl)-1-(4-methylbenzyl)-5-[4-(trifluoromethoxy)phenyl]-1H-indol-3-yl}(oxo)acetic acid, potassium salt] | – | – |
| 85 to 86 °C | – | 17.2 | CC(=O)OCc1c(C(=O)C(=O)O)c2cc(-c3ccc(OC(F)(F)F)cc3)ccc2n1Cc1ccccc1 [Example 43, {2-[(Acetyloxy)methyl]-1-benzyl-5-[4-(trifluoromethoxy)phenyl]-1H-indol-3-yl}(oxo)acetic acid] | – | – |
| 280 to 282 °C | – | 26.3 | O=C([O-])C(=O)c1c(CO)n(Cc2ccccc2)c2ccc(-c3ccc(OC(F)(F)F)cc3)cc12.[K+] [Example 44, {1-Benzyl-2-(hydroxymethyl)-5-[4-(trifluoromethoxy)phenyl]-1H-indol-3-yl}(oxo)acetic acid, potassium salt] | – | – |
| – | – | 13.3 | O=C(O)C(=O)c1cn(CC2CCCCC2)c2ccc(-c3cccc(Cl)c3)cc12 [Example 48, [5-(3-chlorophenyl)-1-(cyclohexylmethyl)-1H-indol-3-yl](oxo)acetic acid] | – | – |
